The values below come from patent publication US4766119A, “Antispasmodic alkylated aminothioester derivatives” (United Pharmaceuticals, Inc., priority 1985, dated 1988).

In series [1] the test system is salivary and sweat glands, GI glands, the eye or the cardiovascular system. Conditions: cited from earlier work.
Series [2] has as its system smooth muscle (gastrointestinal tract, biliary tract, ureter and uterus). As to conditions: cited from earlier work.
Series [3] relates to muscarinic receptors (rabbit lung tissue). Type of series: binding, rabbit (New Zealand White). As to conditions: 0.1 nM [3H]QNB, 37° C., 60 min, pH 7.4.
Series [4] has as its system bethanechol-contracted rabbit bladder strips. Put plainly: relaxation of bethanechol-contracted rabbit urinary bladder strip (organ bath). The format is cell-based. As to conditions: 250 μM bethanechol; for inhibition at 100 µM / inhibition at 10 µM / inhibition at 1 µM / inhibition at 0.1 µM / inhibition at 0.01 µM: Oryctolagus cuniculus, maximal relaxation = pre-bethanechol tone, read-out: % of maximum relaxation. The protocol: The pharmacological actions of two anti-spasmodic compounds were studied in a rabbit urinary bladder strip preparation. In general, longitudinal strips were prepared from the base of freshly isolated rabbit bladders and were then suspended under near-physiological conditions in tissue baths. The strips were attached to force transducers and both contractile and relaxant activity was measured. To measure the relaxant effects on the anti-spasmodic compounds on previously-contracted bladder strips, the strips were initially exposed to the muscarinic receptor agonist bethanechol and allowed to reach a steady level of contractile activity for 20 minutes. At this point cumulative dose-responses to the various compounds were recorded. The rabbit abdomens were opened through a vertical midline incision. The bladder and urethra were dissected free of all surrounding tissues, removed and placed in aerated (95% O2 :5% CO2) Kreb's-bicarbonate buffer (pH: 7.4) of the following composition ([…]): KCl 4.6, CaCl2.2H2 O 2.5, KH2 PO4 1.2, MgSO4.7H2 O 1.2, NaCl 118.2, NaHCO3 24.8, and glucose 10.0. Longitudinal muscle strips were prepared from the bladder base (approximately 6 mm×4 mm) and suspended in an organ bath containing Kreb's buffer (37° C.) which was continuously aerated with O2 :CO2 (95%:5%). Tissues were allowed to equilibrate to a tension of 2 gm for sixty minutes during which time buffer was replaced at 20 minute intervals. The contractile and relaxant responses of the muscle strips were measured isometrically with a Statham UC3 force-displacement transducer and recorded on an Electronics for Medicine DR8 oscillographic recorder. Bethanechol was employed as the representative cholinergic agonist and, following equilibration, was added to the baths for a final concentration of 250 μM. The tissues were allowed 20 minute to achieve a maintained level of contraction in response to bethanechol and, at this point, cumulative dose-response measurements for two anti-spasmodic compounds were started at concentrations ranging from 10^-8 M to 10^-4 M. Solutions were added in volumes up to 100 μl and were prepared fresh each day by dissolving them in distilled: deionzed water. Responses were measured 5 minutes following any particular cumulative addition and were expressed as a percentage of maximal relaxation (e.g. maximal relaxation is the baseline or pre-bethanechol level of muscle tone).
Dose responses, measured from the standard bethanechol-contracted rabbit bladder strips, at various concentrations of 2-ethyl-butyrol-thio-S-(2-diethylaminoethyl)-ester [CH3 CH2)2 --CH--CO--S--(CH2)2 --N--(CH2 CH3)2.HCl], are presented in Table I:
Dose responses, measured from the standard bethanechol-contracted rabbit bladder strips, at various concentrations of 2-propyl-pentanoyl-thiol-S-(2-diethylaminoethyl)-ester.HCl [(CH3 CH2 CH2)2 --CH--CO--S--(CH2)2 --N--(CH2 CH3)2.HCl] are presented in Table II: […]

The structures appear in SMILES notation. Structures can show the parent of a compound that is named as a salt.

In the case of `CCN(CC)CCSC(=O)C(c1ccccc1)c1ccccc1` [Thiphenamil hydrochloride], in series [1], the “characteristic atropinic side effects” value is “without producing characteristic atropinic side effects on salivary and sweat glands, GI glands, the eye or the cardiovascular system”. In addition, the decrease of spasm result in series [2] was “decrease spasm of the gastrointestinal tract, biliary tract, ureter and uterus”.
On to `CCCC(CCC)C(=O)SCCN(CC)CC` [2-propyl-pentanoyl-thio-S-(2-diethylaminoethyl)-ester.HCl], for which the “% inhibition of 3H[QNB] binding (at a concentration of 1.0 × 10^-5 M)” value in series [3] came out at 95%. In series [4] (10^-4 moles/liter), the “Decrease in force of contraction of rabbit bladder strip” value (from here on “Decrease in force”) is reported as 0.81 gm, the “Increase in length of rabbit bladder strip” value (“Increase in length” below) was determined as 2.9 cm and the inhibition at 100 µM amounted to 100%. For the same compound, in series [4] (10^-5 moles/liter), the “Decrease in force” value amounted to 0.31 gm, the “Increase in length” value came out at 1.1 cm and the inhibition at 10 µM was 100%. Moreover, in series [4] (10^-6 moles/liter), the “Decrease in force” value is 0.0 gm, the “Increase in length” value stood at 0.0 cm and the inhibition at 1 µM was 0%. Besides, in series [4] (10^-7 moles/liter), the “Decrease in force” value was 0.0 gm, the “Increase in length” value came to 0.0 cm and the inhibition at 0.1 µM was determined as 0%. For the same compound, in series [4] (10^-8 moles/liter), the “Decrease in force” value is listed as 0.0 gm, the “Increase in length” value came to 0.0 cm and the inhibition at 0.01 µM stood at 0%.
Turning to `CCC(CC)C(=O)SCCN(CC)CC` [2-ethyl-butyryl-thio-S-(2-diethylaminoethyl)ester.HCl], the “% inhibition of 3H[QNB] binding (at a concentration of 1.0 × 10^-5 M)” value in series [3] turned out to be 64%. Moreover, in series [4] (10^-4 moles/liter), the “Decrease in force” value stood at 0.54 gm, the “Increase in length” value was found to be 1.3 cm and the inhibition at 100 µM turned out to be 37%. Moreover, in series [4] (10^-5 moles/liter), the “Decrease in force” value is 0.29 gm, the “Increase in length” value is 0.7 cm and the inhibition at 10 µM was 20%. In series [4] (10^-6 moles/liter), the “Decrease in force” value is given as 0.25 gm, the “Increase in length” value is on record as 0.6 cm and the inhibition at 1 µM stood at 17.1%. Besides, in series [4] (10^-7 moles/liter), the “Decrease in force” value worked out at 0.17 gm, the “Increase in length” value was found to be 0.4 cm and the inhibition at 0.1 µM was determined as 11.4%. Further, in series [4] (10^-8 moles/liter), the “Decrease in force” value came out at 0.13 gm, the “Increase in length” value came to 0.3 cm and the inhibition at 0.01 µM was 8.6%.
